This is an account of results in ChEMBL document CHEMBL1201862, “PubChem BioAssay data set” (2004).

Test [1] concerns Vero. Description: cells. Format: functional, cell-based. To be noted: Chlorocebus sabaeus.
In a further test the target is T1, Coagulation factor XII (Homo sapiens, UniProt P00748).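 Note: activated factor XIIa alpha cleaving a fluorogenic AMC peptide substrate; inhibitor potency from loss of enzyme activity.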
T1 sequence (P00748 whole entry): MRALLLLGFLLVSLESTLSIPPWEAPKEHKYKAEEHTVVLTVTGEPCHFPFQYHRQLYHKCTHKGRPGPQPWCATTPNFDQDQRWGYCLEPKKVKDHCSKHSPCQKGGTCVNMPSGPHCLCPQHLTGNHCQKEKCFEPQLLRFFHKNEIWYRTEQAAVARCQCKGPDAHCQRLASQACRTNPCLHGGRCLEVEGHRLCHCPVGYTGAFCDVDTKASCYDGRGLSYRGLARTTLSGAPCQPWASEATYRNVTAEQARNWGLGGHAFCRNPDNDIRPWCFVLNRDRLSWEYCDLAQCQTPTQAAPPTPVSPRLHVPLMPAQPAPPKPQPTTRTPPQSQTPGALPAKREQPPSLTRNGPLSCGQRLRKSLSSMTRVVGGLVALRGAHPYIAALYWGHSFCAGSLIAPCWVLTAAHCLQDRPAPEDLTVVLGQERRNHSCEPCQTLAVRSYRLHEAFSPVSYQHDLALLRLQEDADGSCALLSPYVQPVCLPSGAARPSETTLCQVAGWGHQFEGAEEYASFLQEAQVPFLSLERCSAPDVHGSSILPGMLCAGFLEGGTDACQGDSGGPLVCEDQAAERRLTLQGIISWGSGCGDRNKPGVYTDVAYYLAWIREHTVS
Format: functional.

For test [2], the target named is T2, Type-1 angiotensin II receptor (Homo sapiens, UniProt P30556).
T2 sequence (P30556 whole entry): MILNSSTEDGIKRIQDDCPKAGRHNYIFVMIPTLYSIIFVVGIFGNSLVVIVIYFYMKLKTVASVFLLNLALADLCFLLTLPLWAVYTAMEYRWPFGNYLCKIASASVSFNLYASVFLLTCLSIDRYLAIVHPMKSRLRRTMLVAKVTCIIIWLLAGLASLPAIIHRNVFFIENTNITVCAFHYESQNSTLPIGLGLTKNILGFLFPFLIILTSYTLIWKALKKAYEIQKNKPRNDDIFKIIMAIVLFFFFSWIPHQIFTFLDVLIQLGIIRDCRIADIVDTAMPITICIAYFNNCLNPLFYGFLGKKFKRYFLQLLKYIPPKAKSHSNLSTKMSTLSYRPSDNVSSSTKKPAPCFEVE
Description: antagonism of angiotensin II type 1 receptor – cell-based, uHTS hits, selectivity assay for APJ receptor antagonist project, dose response (AID 463214).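 Note: antagonist potency against angiotensin II stimulated AT1 response.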 Format: functional.

For test [3], the target named is T3, Beta-galactosidase (Escherichia coli, UniProt Q8VNN2). The experiment in a line: PubChem AID 485352. Format: functional.
T3 sequence (Q8VNN2 whole entry, the tested form may be a part): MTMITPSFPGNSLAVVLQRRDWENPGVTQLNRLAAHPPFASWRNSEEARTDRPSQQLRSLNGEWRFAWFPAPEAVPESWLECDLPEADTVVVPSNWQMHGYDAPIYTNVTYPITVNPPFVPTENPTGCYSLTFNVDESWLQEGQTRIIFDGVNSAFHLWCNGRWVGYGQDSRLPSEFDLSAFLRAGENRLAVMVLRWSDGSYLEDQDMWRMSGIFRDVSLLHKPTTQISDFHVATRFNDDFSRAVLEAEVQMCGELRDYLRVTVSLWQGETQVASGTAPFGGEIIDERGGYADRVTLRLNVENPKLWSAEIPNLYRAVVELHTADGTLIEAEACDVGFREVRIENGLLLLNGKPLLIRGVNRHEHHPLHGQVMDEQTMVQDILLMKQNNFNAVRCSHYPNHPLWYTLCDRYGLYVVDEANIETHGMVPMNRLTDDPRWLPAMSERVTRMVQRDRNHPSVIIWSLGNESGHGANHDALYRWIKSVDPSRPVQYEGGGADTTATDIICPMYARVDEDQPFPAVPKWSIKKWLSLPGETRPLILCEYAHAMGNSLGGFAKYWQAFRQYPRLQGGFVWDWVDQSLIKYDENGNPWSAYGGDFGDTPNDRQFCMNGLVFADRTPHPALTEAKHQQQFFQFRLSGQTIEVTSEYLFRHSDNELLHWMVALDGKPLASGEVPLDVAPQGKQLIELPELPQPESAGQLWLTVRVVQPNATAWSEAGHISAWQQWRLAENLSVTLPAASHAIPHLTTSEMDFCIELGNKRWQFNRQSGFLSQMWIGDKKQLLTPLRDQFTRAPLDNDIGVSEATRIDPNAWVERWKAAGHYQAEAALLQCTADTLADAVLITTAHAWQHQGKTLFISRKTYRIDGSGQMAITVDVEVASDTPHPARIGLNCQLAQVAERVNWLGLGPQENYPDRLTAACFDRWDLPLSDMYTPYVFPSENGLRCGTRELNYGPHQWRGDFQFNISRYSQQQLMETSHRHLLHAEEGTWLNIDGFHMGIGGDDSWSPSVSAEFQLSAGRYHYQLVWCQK
A short description of test [4]: blockers of HIV-1 envelope-mediated cell-cell fusion – cherry-pick, dose response (AID 652057). Format: functional, cell-based.
Test [5] is described as follows: off-target signal loss in HeLa-CEM21 co-culture – HeLa F-luc CTL cells, cherry-picked, counter-screen for HIV-1 Env fusion inhibitor project, dose response (AID 652040).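 Note: potency for signal decrease marking cytotoxic or nonspecific inhibition.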 Type of test: functional, cell-based. Background: A counterscreen serves to expose hits that act by an unwanted route or on another target.
The nature of test [6]: blockers of HIV-1 ZM109 envelope-driven cell-cell fusion – HeLa effector, CEM target cells, luciferase, cherry-pick, dose response (AID 652058).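 Note: luciferase signal from HIV-1 Env mediated cell-cell fusion of effector and target cells.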 Type of test: functional, cell-based.
The nature of test [7]: HIV-1 AD8 envelope cell-cell fusion blockers – cherry-pick, dose response (AID 652062).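 Note: luciferase signal from cell-cell fusion driven by HIV-1 clade B AD8 Env; potency is for inhibitors of fusion seen as a drop in luminescence.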 Format: functional, cell-based.
The nature of test [8]: loss of viability in HepG2 cells – cell-based, CellTiter-Glo, cherry-picked, cytotoxicity control for Shn3 inhibitor project, dose response (AID 624134). Format: functional. (Cellular ATP, detected with luciferase, serves as a proxy for viable cell number.)
Test [9] in a line: reduction of Shn3 3'UTR-driven luciferase in osteoblasts – cell-based, Clone20 osteoblasts, firefly luciferase, cherry-picked, dose response (AID 624132).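 Note: firefly luciferase luminescence from reporter carrying the Shn3 3'UTR in osteoblasts.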 Type of test: functional.
A short description of test [10]: non-specific 3'UTR reporter inhibition in Clone20-Shn3RL – cell-based, Renilla luciferase, cherry-picked, counter-screen for Shn3 inhibitor project, dose response (AID 624133). Format: functional.
For test [11], the target named is T3, Beta-galactosidase. Description: Dose response counterscreen for EBI2 assay utilizing the enzyme, b-galactosidase. Format: functional.
The nature of test [12]: fluconazole-exposed Candida albicans growth modulators – fluorescence, retest, confirmation (AID 2467). Type of test: functional, cell-based.
Test [13] is described as follows: NIH-3T3 fibroblast cytotoxicity, dose response, cytotoxicity control, cell-based, fluorescence, Alamar Blue, secondary assay (AID 2327).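 Note: NIH-3T3 mouse fibroblasts cultured with fluconazole at 8 µg/mL.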 Format: functional. In general terms: Alamar Blue is a resazurin reagent that responds to reducing activity.
For test [14], the target named is T4, Polyadenylate-binding protein 1 (Homo sapiens, UniProt P11940). The experiment in a line: MLLE binding blockers, Cy5 peptide tracer – biochemical, fluorescence polarization, Cy5-PAM2 peptide, secondary, miRNA deadenylation inhibitor project, dose response (AID 602260). The settings on record: read-out: IC50_Mean. Type of test: functional.
T4 sequence (P11940 whole entry, the tested form may be a part): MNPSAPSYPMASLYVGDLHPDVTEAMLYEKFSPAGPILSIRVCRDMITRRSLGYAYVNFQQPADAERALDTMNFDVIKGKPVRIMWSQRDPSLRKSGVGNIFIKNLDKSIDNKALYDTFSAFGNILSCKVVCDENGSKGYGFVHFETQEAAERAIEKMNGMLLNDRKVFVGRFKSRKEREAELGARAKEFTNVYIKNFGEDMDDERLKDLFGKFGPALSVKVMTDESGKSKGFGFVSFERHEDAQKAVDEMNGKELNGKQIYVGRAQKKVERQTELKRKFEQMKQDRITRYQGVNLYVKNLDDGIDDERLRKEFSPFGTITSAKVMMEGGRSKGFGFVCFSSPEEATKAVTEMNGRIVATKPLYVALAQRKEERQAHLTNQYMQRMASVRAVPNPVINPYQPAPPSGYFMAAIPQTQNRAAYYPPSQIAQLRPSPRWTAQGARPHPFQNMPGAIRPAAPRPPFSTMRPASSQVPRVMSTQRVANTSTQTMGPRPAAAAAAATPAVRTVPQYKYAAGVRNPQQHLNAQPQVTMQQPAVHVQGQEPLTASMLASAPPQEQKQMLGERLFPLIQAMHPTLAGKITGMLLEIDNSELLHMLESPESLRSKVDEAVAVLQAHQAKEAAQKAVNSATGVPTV
For test [15], the target named is T4, Polyadenylate-binding protein 1. Description: MLLE domain peptide-binding blockers, IC50 – biochemical, fluorescence polarization, FITC-PAM2 peptide, dose response (AID 602259). Type of test: functional. To be noted: read-out: IC50_Mean.
The nature of test [16]: HEK-293T cell viability reduction – luminescence, B-cell screen hits, cytotoxicity control for BCR NF-kB inhibitor project, dose response (AID 489021).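 Note: HEK-293T cells carrying an NF-kB luciferase reporter; cells exposed to compound for about 14 hours before viability readout.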 Format: functional, cell-based.
The nature of test [17]: cAMP pathway inhibition in counterscreen cell line – TR-FRET cAMP detection, counter-screen for MC4R biased antagonist project, dose response (AID 602305).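 Note: U2OS cells stimulated with forskolin near its EC80 as the cAMP inducer; potency is for inhibition of forskolin-stimulated cAMP signaling.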 Format: functional, cell-based.
A further test addresses Melanocortin receptor 4 (Homo sapiens, UniProt P32245). Description: inhibitors of MC4R cAMP signaling – cell-based, TR-FRET, biased antagonists, dose response (AID 602298).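 Note: antagonist potency against agonist-stimulated cAMP production.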 Type of test: functional.
Test [18] relates to Vero. The experiment in a line: cells. To be noted: Chlorocebus sabaeus. Format: functional.
The subject of a further test is Streptococcus. Description: GAS UMAA2166 growth inhibition – luminescence, BacTiterGlo, counter-screen for streptokinase expression inhibitor project, dose response (AID 1915).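 Note: potency for reduction of bacterial viability or growth.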 Type of test: functional, organism-based.
For the next test, the target named is T5, Streptokinase A (Streptococcus pyogenes serotype M1, UniProt P10520).
T5 sequence (P10520 whole entry): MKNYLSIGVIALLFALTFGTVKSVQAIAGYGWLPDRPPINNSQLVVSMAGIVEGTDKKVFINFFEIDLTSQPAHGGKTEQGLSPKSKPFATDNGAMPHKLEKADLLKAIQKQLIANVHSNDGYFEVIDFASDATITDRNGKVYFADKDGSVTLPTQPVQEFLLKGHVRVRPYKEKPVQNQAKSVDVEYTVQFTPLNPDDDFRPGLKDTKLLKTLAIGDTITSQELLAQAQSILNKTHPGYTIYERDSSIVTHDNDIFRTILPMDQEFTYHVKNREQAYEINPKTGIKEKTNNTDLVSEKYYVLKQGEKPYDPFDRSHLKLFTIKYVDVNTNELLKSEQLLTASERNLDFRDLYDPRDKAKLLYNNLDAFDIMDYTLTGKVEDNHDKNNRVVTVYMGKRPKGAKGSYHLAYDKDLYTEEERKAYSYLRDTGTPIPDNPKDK
The experiment in a line: viability-normalized secreted streptokinase activity reduction – plasminogen activation absorbance, OD405, dose response (AID 1914).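 Note: secreted streptokinase activity via plasminogen activation per viability signal from cell pellet.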 Format: functional, Streptococcus pyogenes M1 GAS.

For test [19], the system named is Streptococcus sp. 'group A'. The experiment in a line: Streptococcus pyogenes SK(-)GAS viability under kanamycin – luminescence, BacTiterGlo, confirmation, counter-screen for streptokinase expression inhibitor project, dose response (AID 1900). Format: functional, organism-based.
Test [20] in a line: Trypanosoma cruzi growth suppression in host cells – NIH3T3 host cells, beta-gal luminescence, confirmation (AID 2044).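 Note: intracellular parasites grown in NIH/3T3 mouse fibroblasts as host cells; luminescent beta-galactosidase reporter signal from transgenic T. cruzi replicating inside host cells; inhibitors lower the luminescence signal.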 Type of test: functional, cell-based.
Test [21] in a line: cells. Type of test: functional, cell-based.
The nature of test [22]: cells. Type of test: functional, cell-based. The source holds these as a separate data set.

Calls of active or inactive are those of the source.

Melanocortin receptor 4, sequence (P32245 whole entry): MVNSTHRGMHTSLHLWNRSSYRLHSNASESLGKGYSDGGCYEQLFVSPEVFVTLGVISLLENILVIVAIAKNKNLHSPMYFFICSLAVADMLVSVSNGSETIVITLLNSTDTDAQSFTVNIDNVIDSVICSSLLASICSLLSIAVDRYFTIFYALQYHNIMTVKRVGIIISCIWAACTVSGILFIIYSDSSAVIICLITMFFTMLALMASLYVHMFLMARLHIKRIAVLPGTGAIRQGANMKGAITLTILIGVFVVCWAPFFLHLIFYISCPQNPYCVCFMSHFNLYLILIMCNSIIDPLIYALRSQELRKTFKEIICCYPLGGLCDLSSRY

On to `O=C1C2CCCN2C(c2ccccc2)N1c1ccc(Cl)cc1` (centres undefined), for which the IC50 in the test with Vero [1] was > 25 µM (active).

`COc1cccc(NC(=O)Nc2cccnc2)c1`: the IC50 at Coagulation factor XII was > 50 µM (inactive).

Usually EC50 stands for the midpoint of the concentration-response curve. Take `Cc1ccc2c(c1)nnn2C1CCN(CC(=O)NCCc2nc3ccccc3[nH]2)CC1`: in test [2], the IC50 is given as > 40 µM (not active). Also, at Beta-galactosidase [3], the EC50 was > 40 µM (inactive).

By AC50 is commonly meant the concentration giving half of the maximal activity seen. In the case of `CCOc1ccc(OCc2cccc(C(=O)N3CCOCC3)c2)cc1`, the AC50 in [4] was 2.64 µM (active); in test [5] it was 5.29 µM (active); in [6], 22 µM (active); in test [7], 7.58 µM (active).

On to `CCOC(=O)c1c(O)c2cc(Cl)ccc2n(CC)c1=O`, for which, on Coagulation factor XII, the IC50 is > 50 µM (inactive).

Take `Cc1nc2ccccc2c2oc(C(=O)N3CCN(C4CCCCC4)CC3)cc12`: the values for the AC50 in test [8], in test [9] and in test [10] were 68.8 µM (active), 7.02 µM (active) and 3.44 µM (active), respectively. For the same compound, at Beta-galactosidase [11], the IC50 was > 80 µM (inactive).

`Cc1cc(OCC(=O)N(C)Cc2ccccc2)ccc1Br`: the IC50 on Beta-galactosidase [11] is > 80 µM (inactive).

Consider `O=C(NNc1ccc(Cl)cc1)c1sccc1Cl`, for which the concentration for a half-maximal effect (EC50) in [12] was 2.04 µM (active); in test [13] it was 3.77 µM (active); at Beta-galactosidase [3] it was > 40 µM (inactive). The IC50 in test [2] is 12.4 µM (active); in test [14], > 66 µM (inactive); in test [15], > 66 µM (inactive).

In the case of `COc1cccc(-c2noc(C3CCCN(S(=O)(=O)c4cccc(Cl)c4C)C3)n2)c1` (centres undefined), the AC50 is 6.22 µM (active) in test [4], 16.5 µM (active) in [5], 10.9 µM (active) in test [6] and 11.9 µM (active) in [7].

As for `COc1ccc(-c2noc(N3CCC(C(=O)Nc4ccc(OC)c(OC)c4)CC3)n2)cc1`, the IC50 in test [16] was > 80 µM (inactive).

As to `COc1ccc(-n2cc(-c3ccc(Br)cc3)nc2S)cc1`, the IC50 at Beta-galactosidase [11] was > 80 µM (inactive).

`CCN1C(=O)/C(=C\c2ccco2)C(C(=O)OC)=C1C`: at Coagulation factor XII, the IC50 is > 50 µM (inactive).

Take `O=S(=O)(c1ccc(F)cc1)N1CCN(c2nc(-c3cccnc3)nc3ccccc23)CC1`: the IC50 (in test [17]; on Melanocortin receptor 4) was > 64.6 µM (inactive) each time.

In the case of `Cc1ccc(-c2[nH]c(C(=O)NCC3CCCO3)cc3c4ccccc4nc2-3)cc1` (centres undefined), in test [16], the IC50 was > 80 µM (inactive).

For `COc1cc(C(=O)N2CCN(c3ncnc4sc(C)c(C)c34)CC2)cc(OC)c1OC`, the AC50 in [4] is 33.7 µM (active); in test [5], 24.4 µM (active); in [6] it was 6.73 µM (active); in [7], 8.4 µM (active).

With `O=C(/C=C/c1ccc([N+](=O)[O-])cc1)N1CCN(S(=O)(=O)c2ccccc2)CC1`, the IC50 on Beta-galactosidase [11] is > 80 µM (inactive).

In the case of `O=C(NNC(=O)C12CC3CC(CC(Br)(C3)C1)C2)c1ccccc1F`, the IC50 in test [16] is > 80 µM (inactive).

As for `COc1ccccc1C1(CCNC(C)c2cccs2)CCOC(C(C)C)C1` (centres undefined), the figures for the IC50 (in test [17]; at Melanocortin receptor 4) were > 64.5 µM (inactive) and 10.1 µM (inactive), respectively.

Regarding `CCOC(=O)C(C(=O)NCc1cccc(OC)c1)c1ncc(C(F)(F)F)cc1Cl` (centres undefined), the IC50 at Coagulation factor XII was > 50 µM (inactive).

Broadly, the CC50 is the concentration that lowers cell viability or growth by half. `CCOC(=O)c1c(SCCN2CCCCC2)n(-c2ccccc2)c(=S)n(-c2ccccc2)c1=O`: the IC50 in the test with Vero [1] was 20.1 µM (active). For the same compound, the CC50 in the test on Vero [18] is > 25 µM (active).

Consider `Cc1ccc(OCC(=O)N2CCN(S(=O)(=O)c3ccc4c(c3)OCCO4)CC2)c(C)c1`, for which, at Beta-galactosidase [11], the IC50 is > 80 µM (inactive).

For the compound `C[C@@H]1CNC(=O)c2c(C(=O)N3CCN(c4ccccc4)CC3)ncn21`, the AC50 in [4] is 7.81 µM (active); in [5] it was 10.4 µM (active); in [6], 14.8 µM (active); in test [7], 19.7 µM (active).

Regarding `O=[N+]([O-])c1cccc(/C=N/NS(=O)(=O)c2ccccc2)c1`, the IC50 in test [2] is 24.3 µM (not active). Besides, the EC50 on Beta-galactosidase [3] was > 40 µM (inactive).

As to `Cc1ccc(Cn2cc(/C=N/NC(=O)Cc3nnc(NC(=O)c4ccc(C)cc4)s3)c3ccccc32)cc1`, the EC50 is 36.9 µM (active) with Streptococcus, > 150 µM (not active) on Streptokinase A and 2.5 µM (active) in test [19]. Further, on Coagulation factor XII, the IC50 was > 50 µM (inactive).

Turning to `Cc1ccc(Nc2nc(N/N=C\c3ccc4c(c3)OCO4)nc(N3CCOCC3)n2)cc1`, the EC50 was 0.393 µM (active) in test [20], > 150 µM (not active) in the test on Streptococcus, 111 µM (active) on Streptokinase A and 21.8 µM (active) in test [19]. In test [16], the IC50 is 63.2 µM (inactive).

Consider `COc1cc(/C=N/CC2OCCc3ccccc32)cc(OC)c1` (centres undefined), for which the EC50 in the test “cells [21]” is > 29.9 µM (inactive). Besides, the IC50 in “cells [22]” is > 29.9 µM (inactive).
